Test results taken from PubChem BioAssay AID1259334 (Broad Institute, 2017).
Calls of active or inactive are those of the source. Rule as the data show it: active = AC50 below about 11 µM. Peptide text beside a SMILES is read from it. * marks the point of attachment. Cbz = O=C(OCc1ccccc1)*

Tested on: B cell line, TNFa signaling counterscreen reporter
Assay: TNFa signaling inhibitors in B cell line, dose response, counter-screen (AID 1259334);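 also: cells stimulated with TNFa after compound preincubation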

SMILES	AC50
CC1=C(SCCO)C(=O)c2ccccc2C1=O	2.22 µM
CC1CC(C)C(=NNC(N)=O)C(C(O)CC2CCC(=O)NC2=O)C1 (stereo unspecified)	0.188 µM
CC(=O)Nc1ccc(Sc2ccc([N+](=O)[O-])o2)cc1	1.64 µM
c1ccn2cc(-c3ccc4c(c3)OCCO4)nc2c1	9.69 µM
C[C@H]1O[C@@H](O[C@H]2[C@@H](O)C[C@H](O[C@H]3[C@@H](O)C[C@H](O[C@H]4CC[C@]5(C)C6CC[C@]7(C)[C@@H](C8=CC(=O)OC8)CC[C@]7(O)C6CC[C@@H]5C4)O[C@@H]3C)O[C@@H]2C)C[C@H](O)[C@@H]1O (stereo partly specified)	0.444 µM
C[C@H]1CN([C@@H](C)CO)C(=O)c2cccc(NC(=O)Nc3ccc(F)cc3)c2O[C@H]1CN(C)S(=O)(=O)c1ccc(Cl)cc1	5.13 µM
CCC(C)(O)C(=O)OC1C(=O)OC2CC3C(C)=CC(=O)C(O)C3(C)C3C4(O)OCC23C1C(C)C4O (stereo unspecified)	0.0228 µM
CC(C)NC(=O)N1Cc2cc(C(=O)NC3Cc4ccccc4C3)nc(-c3cccc(-c4cccnc4)c3)c2[C@@H]1CCO	7.2 µM
COc1ccc(/C=N/Nc2ncccc2[N+](=O)[O-])c(OC)c1	5.22 µM
CC(=O)OCC12CC(OC(=O)CC(C)C)C(C)=CC1OC1C(O)C(OC(C)=O)C2(C)C12CO2 (stereo unspecified)	0.00346 µM
C[C@@H]1CCCCO[C@H](CN(C)CC2CCCCC2)[C@H](C)CN([C@@H](C)CO)C(=O)c2cc(NC(=O)Nc3ccc(C(F)(F)F)cc3)ccc2O1	> 20 µM (inactive)
Clc1ccc(CSC(Cn2ccnc2)c2ccc(Cl)cc2Cl)cc1 (stereo unspecified)	> 20 µM (inactive)
COc1ccc(CC2C(=O)NC(C)C(=O)N(C)C3Cc4ccc(cc4)Oc4cc(ccc4O)CC(C(=O)NC(C)C(=O)NC(C)C(=O)N2C)N(C)C3=O)cc1 (stereo unspecified)	0.00464 µM
CC(C)(C)NCC(=Cc1ccccc1)C(=O)c1ccccc1	2.84 µM
C[C@H]1CN([C@@H](C)CO)C(=O)Cc2cc(NS(=O)(=O)c3cccs3)ccc2O[C@@H]1CN(C)Cc1ccc(Cl)c(Cl)c1	7.19 µM
CCCNC(=O)N1[C@@H](C#N)[C@H](c2ccc(-c3cccc(OC)c3)cc2)[C@@H]1CO	> 20 µM (inactive)
Cc1[nH]c2ccccc2c1C(c1ccccn1)N1CCC(C(N)=O)CC1 (stereo unspecified)	6 µM
O=C(Nc1ccccc1)N1CC(=O)N2[C@H](CO)[C@@H](c3ccc(C#CC4CCCCC4)cc3)[C@H]2C1	11.5 µM
Cc1noc(C)c1S(=O)(=O)Nc1ccc2c(c1)C(=O)N([C@H](C)CO)C[C@@H](C)[C@H](CN(C)C(=O)Nc1cccc3ccccc13)OCCCC[C@@H](C)O2	> 20 µM (inactive)
NCCOc1ccc(C23CC4CC(CC(C4)C2)C3)cc1	4.61 µM
COc1ccc(Cl)cc1NC(=O)Nc1cc(C)nc2ccccc12	> 20 µM (inactive)
CC1(C)C(=O)C=C[C@@]2(C)C1C(=O)C(=O)[C@]1(C)C2CC[C@@]2(C)[C@H](c3ccoc3)C[C@H]3O[C@]321 (stereo partly specified)	1.74 µM

SMILES	AC50
C[C@@H]1CN([C@@H](C)CO)C(=O)c2c(c3ccccc3n2C)-c2ccccc2CO[C@H]1CN(C)Cc1ccccc1	5.53 µM
CN(C)C(=S)SSC(=S)N(C)C	0.0358 µM
CC(C)CCCCCCCCCCCCC(=O)NCC(=O)NC1C(O)C(O)C(Nc2ncnc3nc[nH]c23)OC1C(O)CO (stereo unspecified)	0.00421 µM
CC[C@H]1CN2CCc3cc(OC)c(OC)cc3C2C[C@@H]1CC1NCCc2cc(OC)c(OC)cc21 (stereo partly specified)	0.011 µM
Cc1ccc2nc(C(F)(F)F)c(C#N)c(N)c2c1	7.61 µM
C[C@@H]1CCCCO[C@@H](CN(C)Cc2ccc(Cl)c(Cl)c2)[C@H](C)CN([C@H](C)CO)C(=O)c2cc(NS(=O)(=O)c3cccs3)ccc2O1	6.39 µM
COc1ccc(S(=O)(=O)Nc2ccc3c(c2)C(=O)N([C@@H](C)CO)C[C@@H](C)[C@H](CN(C)Cc2ccc(C(F)(F)F)cc2)OCCCC[C@@H](C)O3)cc1	8.32 µM
CC(C)OC(=O)c1cn(Cc2c(F)cccc2F)c2sc(-c3ccc(NC(=O)C(C)C)cc3)c(CN(C)Cc3ccccc3)c2c1=O	8.24 µM
COc1ccc(/C=C2/CCC(CN3CCOCC3)C2=O)cc1 (stereo unspecified)	2.69 µM
C[C@@H]1CN([C@@H](C)CO)C(=O)c2ccccc2-c2ccccc2CO[C@@H]1CN(C)C(=O)c1cc(Cl)cc(Cl)c1	> 20 µM (inactive)
COc1ccc(C=Cc2ccc3ccccc3n2)c(OC)c1	3.48 µM
CCCn1c(NC(=O)c2cccc(S(=O)(=O)N3CCCC3)c2)nc2ccccc21	2.61 µM
C[C@@H]1CN([C@@H](C)CO)C(=O)c2c(c3ccccc3n2C)-c2ccccc2CO[C@@H]1CN(C)C(=O)Nc1ccccc1C(F)(F)F	7.57 µM
COC(=O)C[C@](O)(CCCC(C)(C)O)C(=O)O[C@@H]1C(OC)=C[C@]23CCCN2CCc2cc4c(cc2[C@H]13)OCO4	< 0.0046 µM
[O-]C(=C(C(=S)Nc1cccc2ccccc12)[n+]1ccccc1)c1ccc2c(c1)OCCO2	> 20 µM (inactive)
N#C[C@H]1[C@H](c2ccc(C#Cc3ccc(F)cc3)cc2)[C@@H](CO)N1C(=O)C1CCC1	> 20 µM (inactive)
O=C1CC(=O)OC(c2ccc([N+](=O)[O-])cc2)O1	1.09 µM
Cc1ccc(N2CC(C(=O)Nc3nccs3)CC2=O)cc1Cl (stereo unspecified)	8.13 µM
COc1ccc2cc(-c3cc(C(=O)O)c4ccccc4n3)ccc2c1	6.93 µM
COCC(=O)N1[C@H](C#N)[C@H](c2ccc(C#Cc3ccccc3F)cc2)[C@H]1CO	2.23 µM
O=C(/C=C/c1cccs1)c1ccc(N2CCOCC2)cc1	3.87 µM
CC(=NNc1ccc2ccccc2n1)c1ccccc1O	1.52 µM

SMILES	AC50
Cc1ccc(CN2CC(C(=O)Nc3ncc(C)s3)CC2=O)cc1 (stereo unspecified)	4.2 µM
CC(C)C[C@@H](C=O)NC(=O)[C@H](CC(C)C)NC(=O)[C@H](CC(C)C)NC(=O)OCc1ccccc1 (Cbz-Leu-Leu-Leu-aldehyde)	3.82 µM
O=C(C#Cc1ccccc1)c1ccccc1	5.68 µM
COc1ccc(S(=O)(=O)Nc2ccc3c(c2)C(=O)N([C@H](C)CO)C[C@H](C)[C@@H](CN(C)Cc2ccc(C(F)(F)F)cc2)OCCCC[C@@H](C)O3)cc1	8.37 µM
CC(=O)O[C@@H]1C[C@@]2(C)[C@H](c3ccoc3)C[C@H]3O[C@]32[C@]2(C)C(=O)C(=O)C3C(C)(C)C(=O)C=C[C@]3(C)C12 (stereo partly specified)	1.22 µM
COc1ccc(S(=O)(=O)Nc2ccc3c(c2)C(=O)N([C@H](C)CO)C[C@@H](C)[C@H](CN(C)Cc2ccc(C(F)(F)F)cc2)OCCCC[C@@H](C)O3)cc1	8.15 µM
O=C(NC(=S)/C(=C1\CCCCCN1)[N+](=O)[O-])c1ccccc1	0.12 µM
COC(=O)C12OCC34C(CC5C(C)=C(O)C(=O)CC5(C)C3C(O)C1O)OC(=O)C(OC(=O)C=C(C)C)C24 (stereo unspecified)	0.671 µM
CCS(=O)(=O)N1Cc2ccccc2CC1C(=O)Nc1nc2ccccc2s1 (stereo unspecified)	6.66 µM
CC1(C)C(=O)C=C[C@@]2(C)C1C=C[C@]1(C)C2CC[C@@]2(C)[C@H](c3ccoc3)OC(=O)[C@H]3O[C@]321 (stereo partly specified)	4.98 µM
COc1cc2cc(C(=O)N3CC(COS(C)(=O)=O)c4ccc(O)cc43)[nH]c2c(OC)c1OC (stereo unspecified)	0.00612 µM
COc1cccc(S(=O)(=O)N(C)C[C@H]2OCc3ccccc3-c3c(n(C)c4ccccc34)C(=O)N([C@@H](C)CO)C[C@@H]2C)c1	> 20 µM (inactive)
CCS(=O)(=O)N1[C@H](CO)[C@@H](c2ccc(C#Cc3ccccc3F)cc2)[C@@H]1C#N	7.11 µM
OC1(c2ccc(Cl)c(C(F)(F)F)c2)CCN(CCCC(c2ccc(F)cc2)c2ccc(F)cc2)CC1	8.99 µM
CCCNC(=O)N1[C@H](C#N)[C@H](c2ccc(C#Cc3cccc(F)c3)cc2)[C@H]1CO	8.92 µM
N#CC(C#N)=NNc1cccc(Cl)c1	9.25 µM
Cc1nc(C)c(C(=O)Nc2ncc([N+](=O)[O-])s2)o1	8.61 µM
CC(C)[C@H](CO)Nc1nc(Nc2cccc(Cl)c2)c2ncn(C(C)C)c2n1	3.58 µM
CC(=O)OC1CC2(O)C3CCC4CC(O)CCC4(C)C3CCC2(C)C1C1=CC(=O)OC1 (stereo unspecified)	0.839 µM
CC(C)Cc1ccc(C(C)CC2=CCC(CN(C)C)C2=O)cc1 (stereo unspecified)	2.41 µM
O=C(NCCc1ccccc1)c1ccc2nccnc2c1	7.65 µM
C[n+]1c2n(c3ccccc31)N=C(c1ccc(-c3ccccc3)cc1)CS2	1.25 µM

SMILES	AC50
O=C(Cc1ccccc1)N1CC[C@@H]2[C@H]1c1cc(C#Cc3cccc(F)c3)ccc1N[C@@H]2CO	6.03 µM
CC12CCC3C(CCC4(O)CC(O)CCC34C=NO)C1(O)CCC2C1=COC(=O)C1 (stereo unspecified)	0.6 µM
Cc1cc(OCC(=O)OCC(=O)NCc2ccco2)ccc1Cl	> 20 µM (inactive)
N#Cc1cccc(-c2ccc([C@@H]3[C@@H]4CN(S(=O)(=O)c5ccc(-c6ccccc6)cc5)C[C@H]3N4)cc2)c1	11.4 µM
O=C(Nc1ccc2c(c1)OCCO2)C1CCCC1	1.76 µM
CC1CCOC(=O)C=CC=CC(=O)OC2CC3OC4C5OC5(C)C(O)CC4(COC(=O)C1O)C2(C)C31CO1 (stereo unspecified)	0.0338 µM
COc1ccc2c3c([nH]c2c1)[C@H](CO)N(C(=O)Nc1ccc(F)cc1)CC31CCN(C(=O)c2ccccc2F)CC1	6.12 µM
Oc1c(Cl)cc(Cl)c(Cl)c1Cc1c(O)c(Cl)cc(Cl)c1Cl	2.69 µM
O=C1CC(c2ccc3c(c2)OCO3)Sc2nc3ccccc3n21 (stereo unspecified)	3.83 µM
COc1cc(/C=N/n2cnnc2)ccc1OC(=O)c1ccncc1	8.26 µM
Cc1ccccc1C(=O)N1CCC(C(=O)Nc2nc3ccc(F)cc3s2)CC1	7.86 µM
O=C1NC2C(=CC(O)C(O)C2O)c2cc3c(c(O)c21)OCO3 (stereo unspecified)	0.0423 µM
COc1ccc(C(=O)/C=C/C(=O)N(CC(=O)NC2CCCCC2)Cc2ccc(F)cc2)c(O)c1	5.1 µM
COc1ccc(CNCCC(c2ccc(F)cc2)c2ccc(OC(C)C)cc2)cc1OC (stereo unspecified)	3.5 µM
N#Cc1cccc(-c2ccc(C3[C@H]4CNC[C@@H]3N4Cc3ccc4c(c3)OCO4)cc2)c1 (stereo partly specified)	6.32 µM
c1ccc(-c2ccc(-c3ccccn3)nn2)nc1	6.99 µM
C[C@H]1O[C@@H](O[C@H]2[C@@H](O)C[C@H](O[C@H]3[C@@H](O)C[C@H](O[C@H]4CC[C@]5(C)C6C[C@@H](O)[C@]7(C)[C@@H](C8=CC(=O)OC8)CC[C@]7(O)C6CC[C@@H]5C4)O[C@@H]3C)O[C@@H]2C)C[C@H](O)[C@@H]1O (stereo partly specified)	0.697 µM
CCN(CC)C(=O)c1ccc(NC(=O)Nc2ccccc2F)cc1	1.86 µM
O=C(/C=C/c1ccccc1)CC(O)(c1ccccc1)C(F)(F)C(F)F (stereo unspecified)	5.06 µM
CCC(C)[C@H]1O[C@]2(CC[C@@H]1C)C[C@@H]1C[C@@H](C/C=C(\C)[C@@H](OC3C[C@H](OC)C(O[C@H]4C[C@H](OC)[C@@H](O)[C@H](C)O4)[C@H](C)O3)[C@@H](C)/C=C/C=C3\CO[C@@H]4[C@H](O)C(C)=C[C@@H](C(=O)O1)[C@]34O)O2 (stereo partly specified)	> 20 µM (inactive)
